{"source": "patent US7026458B2", "about": "“High light fastness reactive red dyes” (DyStar Textilfarben GbmH & Co. Deutschland KG, priority 2003, dated 2006)", "experiment": "Solubility in 90 g/L salt solution at 50° C.", "type": "physicochemical", "protocol": "9% w/v solutions of Dyestuff (Ia) and of Dyestuff (5) were prepared at 50° C. and salt added to produce a 90 g/L salt solution. After 30 mins, 4.2% of Dyestuff (Ia) remained in solution whilst only 2.8% of Dyestuff (5) remained in solution. Thus Dyestuff (Ia) is 50% more soluble in 90 g/L salt at 50° C. than Dyestuff (5). This factor can be crucial as dyeings are carried out at high salt concentrations and better salt solubility can avoid problems with unlevel exhaustion onto the fibre from an exhaust dyebath.", "data": [{"smiles": "Cc1ccc(Nc2nc(Cl)nc(Nc3ccc(/N=N/c4c(N)c(S(=O)(=O)O)cc5cc(S(=O)(=O)O)cc(O)c45)c(S(=O)(=O)O)c3)n2)c(Nc2nc(Cl)nc(Nc3ccc(/N=N/c4c(N)c(S(=O)(=O)O)cc5cc(S(=O)(=O)O)cc(O)c45)c(S(=O)(=O)O)c3)n2)c1", "note": "[Dyestuff (Ia)]", "values": [{"measurement": "dyestuff remained in solution", "setting": "9% w/v solution prepared at 50° C., salt added to give 90 g/L salt solution, after 30 mins", "value": 4.2, "unit": "%"}, {"measurement": "more soluble than Dyestuff (5)", "setting": "in 90 g/L salt at 50° C., relative to Dyestuff (5)", "value": 50, "unit": "%"}]}]}
